Like-named read-outs stand apart in the source and are kept apart here. Numbered stars: 1 amine (or outer) side, 2 acyl side, 3 side chain; on linkers, the order of the positions; unused ones are H or OH. Bridge positions count the residues as written; N and C are the ends. Square brackets hold non-standard residues; d marks the D form. Peptide text beside a SMILES is read from it. Adda = CO[C@@H](Cc1ccccc1)[C@@H](C)/C=C(C)/C=C/[C@H](N[*:1])[C@H](C)C(=O)[*:2]; dAsp(3S-Me) = C[C@H](C(=O)[*:3])[C@@H](N[*:1])C(=O)[*:2]; d(γGlu) = O=C(O)[C@@H](CCC(=O)[*:2])N[*:1]; NMeDha = C=C(NC)C(=O)O
Tests used:
[1] = molecular target: T1, protein phosphatase-2A (PP2A) catalytic subunit (Oryctolagus cuniculus, UniProt P67777); experiment: Standard phosphorylase a phosphatase assay, inhibition of PP2A catalytic subunit; assay type: biochemical, rabbit; details: for inhibition of PP2A: result in words
T1 construct: Homogeneous PP-1 and -2A catalytic subunits were purified from rabbit skeletal muscle; from tissue; host or cells: rabbit skeletal muscle

[2] = molecular target: protein phosphatase-1 (PP1) catalytic subunit; experiment: Standard phosphorylase a phosphatase assay, inhibition of PP1 catalytic subunit; assay type: biochemical, rabbit; details: for inhibition of PP1: result in words
PP1/PP2A = experiment: LC-linked protein phosphatase bioassay, cross-reactivity; assay type: biochemical, rabbit; details: result in words
[3] = system: protein phosphatase-1 (PP1); details: literature, result in words; cited from earlier work
[4] = system: protein phosphatase-2A (PP2A); details: literature, result in words; cited from earlier work
mouse skin = details: cited from earlier work

T1 sequence (P67777 whole entry): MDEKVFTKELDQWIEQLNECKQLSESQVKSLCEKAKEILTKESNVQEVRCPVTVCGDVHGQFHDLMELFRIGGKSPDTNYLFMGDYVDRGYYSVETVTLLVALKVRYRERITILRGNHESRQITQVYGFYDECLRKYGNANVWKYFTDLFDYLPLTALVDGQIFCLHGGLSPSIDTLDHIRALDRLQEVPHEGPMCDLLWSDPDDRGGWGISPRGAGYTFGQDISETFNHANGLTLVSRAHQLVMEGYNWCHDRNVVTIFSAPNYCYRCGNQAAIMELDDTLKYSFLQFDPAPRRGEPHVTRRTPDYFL

C=C1C(=O)N[C@H](C)C(=O)N[C@@H](CC(C)C)C(=O)N[C@@H](C(=O)O)[C@H](C)C(=O)N[C@@H](CCCNC(=N)N)C(=O)N[C@@H](/C=C/C(C)=C/[C@H](C)[C@H](Cc2ccccc2)OC)[C@H](C)C(=O)N[C@@H](C(=O)O)CCC(=O)N1C [Microcystin-LR] (R[Adda][d(γGlu)][NMeDha][dA]L[dAsp(3S-Me)]-OH; lactam N-7)
IC50 ([1]; pH 7, read-out: IC50 for PP2A inhibition): 0.1 nM
IC50 ([2]; pH 7): 0.1 nM

C/C(=C/C=C/[C@@H](C)C(=O)O)[C@H]1CN[C@H](C(=O)O)[C@H]1CC(=O)O [domoic acid]
cross-reactivity in the LC-linked protein phosphatase bioassay (PP1/PP2A): does not cross-react

CO[C@@H]1[C@@H](OC)[C@H](C)[C@@](O)(CC(=O)O)O[C@H]1[C@H](C)[C@H]1O[C@@]2(CC[C@@](C)([C@H]3CC[C@@](C)([C@@H]4O[C@@H]([C@H]5O[C@](C)(O)[C@H](C)C[C@@H]5C)C[C@@H]4O[C@@H]4C[C@H](OC)[C@@H](OC)[C@H](C)O4)O3)O2)C[C@H](O)[C@H]1C [maduramycin]
inhibition of PP2A [1]: not inhibited
inhibition of PP1 [2]: not inhibited

CC[C@@]1([C@@H]2O[C@@H]([C@H]3O[C@@](O)(CO)[C@H](C)C[C@@H]3C)C[C@@H]2C)CC[C@H]([C@]2(C)CC[C@]3(C[C@H](O)[C@@H](C)[C@@H]([C@@H](C)[C@@H](OC)[C@H](C)C(=O)O)O3)O2)O1 [monensin]
inhibition of PP2A [1]: not inhibited
inhibition of PP1 [2]: not inhibited

CO[C@@H]1C[C@@H](C[C@H]2CC[C@H](C)[C@H]([C@@H](C)C(=O)O)O2)O[C@]2(O[C@](C)([C@H]3CC[C@@](C)([C@@H]4O[C@@H]([C@H]5O[C@@](O)(CO)[C@H](C)C[C@@H]5C)C[C@@H]4C)O3)C[C@H]2C)[C@@H]1C [nigericin]
inhibition of PP2A [1]: not inhibited
inhibition of PP1 [2]: not inhibited

C=C1[C@@H](O)[C@@H]2O[C@]3(CC[C@H](/C=C/[C@@H](C)[C@@H]4CC(C)=C[C@@]5(O[C@H](C[C@@](C)(O)C(=O)O)CC[C@H]5O)O4)O3)CC[C@H]2O[C@@H]1[C@@H](O)C[C@H](C)[C@H]1O[C@@]2(CCCCO2)CC[C@H]1C [okadaic acid]
inhibitor of protein phosphatase-1 [3]: potent and specific inhibitor
IC50 ([1]; PP2A diluted to 0.03 mU/ml in the standard assay, read-out: IC50 for okadaic acid with diluted PP2A): 0.04 nM
fold stronger inhibition of PP2A than PP1 ([1]; PP2A relative to PP1, standard assay): 90(+10) fold
inhibitor of protein phosphatase-2A [4]: potent and specific inhibitor
tumour promotion (mouse skin; result in words): powerful tumour promoters
tumour promoting potency compared with phorbol esters (mouse skin; two-stage carcinogenesis, mouse skin, versus phorbol esters): comparable potency
IC50 ([2]; standard phosphorylase a phosphatase assay, 1 mU/ml PP1, pH 7.0, 30° C.): 19 nM

CC[C@@H](C(=O)[C@@H](C)[C@@H](O)[C@H](C)[C@@H]1O[C@@H]([C@@H](CC)C(=O)O)CC[C@@H]1C)[C@H]1O[C@]2(C=C[C@@H](O)[C@]3(CC[C@@](C)([C@H]4CC[C@](O)(CC)[C@H](C)O4)O3)O2)[C@H](C)C[C@@H]1C [salinomycin]
inhibition of PP2A [1]: not inhibited
inhibition of PP1 [2]: not inhibited

dinophysistoxin-1
fold stronger inhibition of PP2A than PP1 ([1]; rabbit): 90(+10) fold
tumour promoting potency compared with phorbol esters (mouse skin; mouse, in vivo): comparable potency
tumour promotion (mouse skin; mouse, in vivo): powerful tumour promoters
